The source of these data is US9050286B2, “Use of peptidic vasopression receptor agonists” (Ferring B.V., priority 2007, dated 2015).

Bridge positions count the residues as written; N and C are the ends. Square brackets hold non-standard residues; d marks the D form. Peptide text beside a SMILES is read from it. Ala(cPent) = N[C@@H](CC1CCCC1)C(=O)O; Orn(iPr) = CC(C)NCCC[C@H](N)C(=O)O; Cha = N[C@@H](CC1CCCCC1)C(=O)O; Orn = NCCC[C@H](N)C(=O)O; Dab = NCC[C@H](N)C(=O)O; Ac4c = NC1(C(=O)O)CCC1

The assay deals with T1, hV1a receptor (Homo sapiens, UniProt P37288).
T1 construct: expressed in transfected cells; host or cells: HEK-293
T1 sequence (P37288 whole entry): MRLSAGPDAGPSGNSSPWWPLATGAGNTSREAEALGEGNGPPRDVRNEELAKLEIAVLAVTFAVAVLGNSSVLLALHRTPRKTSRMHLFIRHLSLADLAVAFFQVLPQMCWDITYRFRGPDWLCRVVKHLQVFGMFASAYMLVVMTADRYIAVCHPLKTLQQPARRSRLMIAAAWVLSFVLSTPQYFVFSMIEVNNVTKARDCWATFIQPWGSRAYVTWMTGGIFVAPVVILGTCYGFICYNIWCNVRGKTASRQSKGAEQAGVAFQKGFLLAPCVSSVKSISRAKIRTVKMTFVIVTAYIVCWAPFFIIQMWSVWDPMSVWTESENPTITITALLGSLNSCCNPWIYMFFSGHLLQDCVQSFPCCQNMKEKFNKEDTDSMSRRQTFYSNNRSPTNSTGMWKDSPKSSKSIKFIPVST
Nature of the assay: hV1a receptor agonist transcriptional reporter (luciferase) assay in transiently transfected HEK-293 cells. The format is cell-based. The note with it: agonist activity; HEK-293 cells transiently transfected with hV1a receptor and calcium-responsive luciferase reporter; 5 hours exposure; geometric mean of at least three independent experiments; read-out: EC50 (median effective concentration). As to the method:
Agonist activity of compounds on the hV1a receptor was determined in a transcriptional reporter assay by transiently transfecting a hV1a receptor expression DNA into HEK-293 cells in concert with a reporter DNA containing intracellular calcium responsive promoter elements regulating expression of firefly luciferase. See Boss, V., Talpade, D. J., Murphy, T. J. J. Biol. Chem. 1996, May 3; 271(18), 10429-10432 for further guidance on this assay. […] Arginine-vasopressin (AVP) was used as an internal control in each experiment, and compounds were tested in at least three independent experiments.
The results of the in vitro assays are depicted in table 1 supra. The EC50 value given is the geometric mean expressed in nanomol/L (nM). Selectivity values are given as EC50 ratios.
A general note: Reporter assays use an easily measured gene product as a stand-in for the process of interest.
For the compound `CC[C@H](C)[C@@H]1NC(=O)[C@H](CC2CCCC2)NC(=O)[C@@H](N)CSSC[C@@H](C(=O)N2CCC[C@H]2C(=O)N[C@@H](CCCN)C(=O)NCC(N)=O)NC(=O)[C@H](CC(N)=O)NC(=O)[C@H](CC(N)=O)NC1=O` [Compound 7] (H-C[Ala(cPent)]INNCP[Orn]G-NH2; disulfide 1-6), the EC50 amounted to 7.7 nM.

As for `CC[C@H](C)[C@@H]1NC(=O)[C@H](CC2CCCCC2)NC(=O)[C@@H](N)CSSC[C@@H](C(=O)N2CCC[C@H]2C(=O)N[C@@H](CCCNC(C)C)C(=O)NCC(N)=O)NC(=O)[C@H](CC(N)=O)NC(=O)[C@H](CC(N)=O)NC1=O` [Compound 4, [Cha^2, Asn^4, Orn (i-Pr)^8]VT] (H-C[Cha]INNCP[Orn(iPr)]G-NH2; disulfide 1-6), the EC50 was found to be 10.7 nM.

Take `CC[C@H](C)[C@@H]1NC(=O)[C@H](CC2CCCCC2)NC(=O)[C@@H](N)CSSC[C@@H](C(=O)N2CCC[C@H]2C(=O)N[C@@H](CCCN)C(=O)NCC(N)=O)NC(=O)[C@H](CC(N)=O)NC(=O)[C@H](CC(N)=O)NC1=O` [Compound 8] (H-C[Cha]INNCP[Orn]G-NH2; disulfide 1-6): the EC50 was determined as 0.75 nM.

Consider `CC[C@H](C)[C@@H]1NC(=O)C2(CCC2)NC(=O)[C@@H](N)CSSC[C@@H](C(=O)N2CCC[C@H]2C(=O)N[C@@H](CCCN)C(=O)NCC(N)=O)NC(=O)[C@H](CC(N)=O)NC(=O)[C@H](CC(N)=O)NC1=O` [Compound 6] (H-C[Ac4c]INNCP[Orn]G-NH2; disulfide 1-6), for which the EC50 came out at 7.93 nM.

As to `CC[C@H](C)[C@@H]1NC(=O)[C@H](CC2CCCCC2)NC(=O)[C@@H](N)CSSC[C@@H](C(=O)N2CCC[C@H]2C(=O)N[C@@H](CCN)C(=O)NCC(N)=O)NC(=O)[C@H](CC(N)=O)NC(=O)[C@H](CC(N)=O)NC1=O` [Compound 12] (H-C[Cha]INNCP[Dab]G-NH2; disulfide 1-6; N-terminus assumed), the EC50 came to 2.28 nM.

With `CC[C@H](C)[C@@H]1NC(=O)C2(CCC2)NC(=O)[C@@H](N)CSSC[C@@H](C(=O)N2CCC[C@H]2C(=O)N[C@@H](CCN)C(=O)NCC(N)=O)NC(=O)[C@H](CC(N)=O)NC(=O)[C@H](CC(N)=O)NC1=O` [Compound 9] (H-C[Ac4c]INNCP[Dab]G-NH2; disulfide 1-6; N-terminus assumed), the EC50 amounted to 14.8 nM.
